The assay has as its target T1, Recombinant human Met (c-Met) (Homo sapiens, UniProt P08581).
T1 construct: purchased Invitrogen PV3143
Nature of the assay: Inhibition of c-Met kinase activity using Transcreener FP assay. It counts as biochemical. Conditions: Poly E4Y substrate, 28° C. 45 min. As to the method: Compound dilution: dilute test articles to 5 folds of the testing concentration using 20% DMSO.
The mixture is kept on ice until use;
Prepare ATP standard curve stock as following:
3. Enzymatic reaction: in 96-well reaction plate
Add 5 μL of test article or 5 μL of 20% DMSO or 5 μL of 500 mM EDTA;
Add 10 μL of Enzyme/Substrate stock;
Add 10 μL of ATP Diluent to begin the enzyme reaction and mix on plate shaker;
Add 5 μL of 20% DMSO, 10 μL of assay buffer and 10 μL of ATP standard curve stock into standard curve wells;
Gently shake at 28° C. for 45 min.
4. Stop reaction and detect ADP
Prepare Detection Mix: According to the procedures described in the Assay kit, Alexa633 tracer, ADP antibody and stop & detect buffer were added into H2O and mixed thoroughly. Prepare Tracer Only control: According to the procedures described in the Assay kit, ADP Alexa633 tracer and stop & detect buffer were added to H2O and mixed throughly.
Prepare No Tracer control: According to the procedures described in the Assay kit, the stop & detect buffer was diluted with H2O;
Add 25 μL of detection mix, Tracer Only control and No Tracer control into corresponding wells, respectively;
The reaction plate was gently shaken at 28° C. for 1 h;
Florescence polarization (FP) was measured on TECAN F500. Excitation wavelength: 610 nm, Emission wavelength: 670 nm.
Compound well [ADP] represents the ADP concentration of the compound well. Positive control well [ADP] represents the ADP concentration of the 20% DMSO well. Conversion of mP value to ADP concentration is based on the formula which is determined by standard curve.
IC50: calculated using XL-Fit 2.0 software.

Setting [1] is: read-out: IC50, inhibition of c-Met kinase activity.

Where two headings read alike, the source gives them in different places.

T1 sequence (P08581 956-1390 limits assumed): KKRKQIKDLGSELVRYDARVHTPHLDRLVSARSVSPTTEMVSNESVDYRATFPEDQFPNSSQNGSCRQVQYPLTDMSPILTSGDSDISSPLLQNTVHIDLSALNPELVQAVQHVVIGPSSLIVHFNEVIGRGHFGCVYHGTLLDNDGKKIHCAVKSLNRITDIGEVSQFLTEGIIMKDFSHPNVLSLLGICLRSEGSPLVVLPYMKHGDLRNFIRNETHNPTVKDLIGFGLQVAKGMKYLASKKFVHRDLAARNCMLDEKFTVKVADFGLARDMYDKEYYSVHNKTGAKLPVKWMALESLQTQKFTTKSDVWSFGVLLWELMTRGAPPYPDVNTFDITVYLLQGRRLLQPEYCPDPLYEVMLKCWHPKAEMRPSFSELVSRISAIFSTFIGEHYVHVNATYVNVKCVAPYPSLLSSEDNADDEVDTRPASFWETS

A word on the IC50: it is the concentration needed to halve the response being measured. As for `COCc1cnc2ccc(C(C)n3nnc4ncc(-c5cnn(C)c5)nc43)cn12` (racemic) [Compound 318, 1-(1-(3-(methoxymethyl)imidazo[1,2-a]pyridin-6-yl)ethyl)-6-(1-methyl-1H-pyrazol-4-yl)-1H-[1,2,3]triazolo[4,5-b]pyrazine], the IC50 under setting [1] fell in the range of 0.001 to 0.1 µM.
Turning to `CC(c1ccc2nccn2c1)n1nnc2ncc(-c3cnn(C)c3)nc21` (racemic) [Compound 331], where the note is “IC50, inhibition of c-Met kinase activity”, the IC50 is 0.001 to 0.1 µM.
Turning to `CC(c1ccc2ncccc2c1)n1nnc2ccc(-c3cnn(CCO)c3)nc21` (racemic) [Compound 332], the IC50 under setting [1] was 0.001 to 0.1 µM.
For the molecule `Cn1cc(-c2cnc3nnn(Cc4c[nH]c5ncccc45)c3n2)cn1` [Compound 1, 1-((1H-Pyrrolo[2,3-b]pyridin-3-yl)methyl)-6-(1-methyl-1H-pyrazol-4-yl)-1H-[1,2,3]-triazolo[4,5-b]pyrazine], the IC50 under setting [1] fell in the range of 0.001 to 0.1 µM.
As for `CC1N=CC(c2cnc3nnn(Cc4cc5cccnc5s4)c3n2)=N1` (centres unmarked) [Compound 2], the IC50 under setting [1] was in the range of 0.1 to 1 µM.
For `OCCn1cc(-c2cnc3nnn(Cc4cc5cccnc5s4)c3n2)cn1` [Compound 5], under setting [1], the IC50 fell in the range of 0.1 to 1 µM.
In the case of `c1csc(-c2cnc3nnn(Cc4cc5cccnc5s4)c3n2)c1` [Compound 6], the IC50 under setting [1] is 0.1 to 1 µM.
As for `CCn1cc(-c2cnc3nnn(Cc4ccc5nccn5c4)c3n2)cn1` [Compound 8], the IC50 under setting [1] lay within 0.001 to 0.1 µM.
On the same count and under the same terms, as for `Cn1cc(-c2cnc3nnn(Cc4ccc5ncsc5c4)c3n2)cn1` [Compound 11], the figure is 0.001 to 0.1 µM.
With `OCCn1cc(-c2cnc3nnn(Cc4ccc5ncsc5c4)c3n2)cn1` [Compound 12], the IC50 under setting [1] is 0.001 to 0.1 µM.
Still for that read-out and setting: as for `OCCn1cc(-c2cnc3nnn(Cc4cc5[nH]ncc5s4)c3n2)cn1` [Compound 13], the figure is 0.001 to 0.1 µM.
On the same count and under the same terms, as for `COCCn1cc(-c2cnc3nnn(Cc4n[nH]c5ncccc45)c3n2)cn1` [Compound 15], the figure is 0.001 to 0.1 µM; as for `c1nn(C2CCNCC2)cc1-c1cnc2nnn(Cc3cc4[nH]ncc4s3)c2n1` [Compound 17], 0.1 to 1 µM.
Regarding `c1cc2sc(Cn3nnc4ncc(-c5cnn(C6CCNCC6)c5)nc43)cc2cn1` [Compound 18], the IC50 under setting [1] fell in the range of 0.1 to 1 µM.
On the same count and under the same terms, as for `CC(c1ccc2ncsc2c1)n1nnc2ncc(-c3cnn(C)c3)nc21` (centres unmarked) [Compound 19], the figure is 0.001 to 0.1 µM.
`CC(c1ccc2ncsc2c1)n1nnc2ncc(-c3cnn(CCO)c3)nc21` (centres unmarked) [Compound 20]: the IC50 under setting [1] lay within 0.001 to 0.1 µM.
Take `CC(c1cc2cnccc2s1)n1nnc2ncc(-c3cnn(CCO)c3)nc21` (centres unmarked) [Compound 21]: the IC50 under setting [1] was in the range of 0.001 to 0.1 µM.
`c1cc2sc(Cn3nnc4ncc(-c5cnn(C6CCOCC6)c5)nc43)cc2cn1` [Compound 22]: the IC50 under setting [1] was in the range of 0.1 to 1 µM.
Still for that read-out and setting: as for `COCCn1cc(-c2cnc3nnn(Cc4cc5cnccc5s4)c3n2)cn1` [Compound 23], the figure is 0.1 to 1 µM.
Same read-out and setting: as for `O=C(Cn1cc(-c2cnc3nnn(Cc4ccc5ncsc5c4)c3n2)cn1)NC1CC1` [Compound 24], the figure is 0.001 to 0.1 µM; as for `CCn1cc(-c2cnc3nnn(Cc4cc5[nH]ncc5s4)c3n2)cn1` [Compound 25], 0.001 to 0.1 µM.
Consider `CC(C)n1cc(-c2cnc3nnn(Cc4cc5[nH]ncc5s4)c3n2)cn1` [Compound 26], for which, under setting [1], the IC50 fell in the range of 0.001 to 0.1 µM.
Consider `N#CCn1cc(-c2cnc3nnn(Cc4cc5[nH]ncc5s4)c3n2)cn1` [Compound 27], for which the 50% inhibitory concentration (IC50) under setting [1] lay in the range of 0.001 to 0.1 µM.
Same read-out and setting: as for `OCCn1cc(-c2cnc3nnn(Cc4csc5ncccc45)c3n2)cn1` [Compound 30], the figure is 0.1 to 1 µM; as for `CC(C)n1cc(-c2cnc3nnn(Cc4ccc5nccn5c4)c3n2)cn1` [Compound 34], 0.001 to 0.1 µM; as for `N#CCn1cc(-c2cnc3nnn(Cc4ccc5nccn5c4)c3n2)cn1` [Compound 35], 0.001 to 0.1 µM.
Consider `CCn1cc(-c2cnc3nnn(Cc4cc5c(cnn5CC)s4)c3n2)cn1` [Compound 37], for which the IC50 under setting [1] lay within 0.1 to 1 µM.
On the same count and under the same terms, as for `CCn1ncc2sc(Cn3nnc4ncc(-c5cnn(CCO)c5)nc43)cc21` [Compound 38], the figure is 0.1 to 1 µM.
As to `CCn1cc(-c2cnc3nnn(Cc4csc5ncccc45)c3n2)cn1` [Compound 41], under setting [1], the IC50 was in the range of 0.1 to 1 µM.
On the same count and under the same terms, as for `FC(F)(F)Cn1cc(-c2cnc3nnn(Cc4cc5[nH]ncc5s4)c3n2)cn1` [Compound 42], the figure is 0.001 to 0.1 µM; as for `c1n[nH]cc1-c1cnc2nnn(Cc3cc4[nH]ncc4s3)c2n1` [Compound 44], 0.001 to 0.1 µM.
Turning to `COCCn1cc(-c2cnc3nnn(Cc4cc5[nH]ncc5s4)c3n2)cn1` [Compound 45], under setting [1], the IC50 lay in the range of 0.001 to 0.1 µM.
For `c1cn2cc(Cn3nnc4ncc(-c5cnn(C6CCNCC6)c5)nc43)ccc2n1` [Compound 46], the IC50 under setting [1] lay within 0.001 to 0.1 µM.
Same read-out and setting: as for `CCCn1cc(-c2cnc3nnn(Cc4ccc5nccn5c4)c3n2)cn1` [Compound 47], the figure is 0.001 to 0.1 µM; as for `CCn1cc(-c2cnc3nnn(Cc4n[nH]c5ncccc45)c3n2)cn1` [Compound 49], 0.001 to 0.1 µM.
`FC(F)(F)Cn1cc(-c2cnc3nnn(Cc4ccc5ncnn5c4)c3n2)cn1` [Compound 52]: the IC50 under setting [1] was 0.001 to 0.1 µM.
In the case of `COCCn1cc(-c2cnc3nnn(Cc4ccc5ncnn5c4)c3n2)cn1` [Compound 53], the IC50 under setting [1] is 0.1 to 1 µM.
Same read-out and setting: as for `OCCn1cc(-c2cnc3nnn(Cc4ccc5ncnn5c4)c3n2)cn1` [Compound 54], the figure is 0.001 to 0.1 µM.
Same read-out and setting: as for `c1nc2ccc(Cn3nnc4ncc(-c5cnn(C6CCOCC6)c5)nc43)cn2n1` [Compound 55], the figure is 0.1 to 1 µM.
On the same count and under the same terms, as for `COc1ccc(-c2cnc3nnn(Cc4ccc5nccn5c4)c3n2)cc1` [Compound 57], the figure is 0.001 to 0.1 µM; as for `COCCn1cc(-c2cnc3nnn(Cc4ccc5nccn5c4)c3n2)cn1` [Compound 58], 0.001 to 0.1 µM; as for `COc1ccc(-c2cnc3nnn(Cc4ccc5ncnn5c4)c3n2)cc1` [Compound 59], 0.001 to 0.1 µM.
Regarding `OCCn1cc(-c2ccc3nnn(Cc4ccc5ncccc5c4)c3n2)cn1` [Compound 61], under setting [1], the IC50 was 0.001 to 0.1 µM.
As to `Nc1ccc(-c2ccc3nnn(Cc4ccc5ncccc5c4)c3n2)cn1` [Compound 62], the IC50 under setting [1] is 0.001 to 0.1 µM.
For the molecule `c1cnc2ccc(Cn3nnc4ccc(-c5ccc(N6CCOCC6)nc5)nc43)cc2c1` [Compound 63], the IC50 under setting [1] fell in the range of 0.001 to 0.1 µM.
Same read-out and setting: as for `c1c[nH]c(-c2ccc3nnn(Cc4ccc5ncccc5c4)c3n2)c1` [Compound 64], the figure is 0.1 to 1 µM; as for `CCOC(=O)Cn1cc(-c2ccc3nnn(Cc4ccc5ncccc5c4)c3n2)cn1` [Compound 65], 0.001 to 0.1 µM.
For `O=C(O)Cn1cc(-c2ccc3nnn(Cc4ccc5ncccc5c4)c3n2)cn1` [Compound 66], the IC50 under setting [1] was 0.1 to 1 µM.
Take `COc1ccc(-c2ccc3nnn(Cc4ccc5ncccc5c4)c3n2)cn1` [Compound 70]: the IC50 under setting [1] was in the range of 0.001 to 0.1 µM.
Take `Cn1cc(-c2ccc3nnn(Cc4cc5cnccc5s4)c3n2)cn1` [Compound 71]: the IC50 under setting [1] was in the range of 0.1 to 1 µM.
As for `Cn1cc(-c2ccc3nnn(Cc4ccc5ncsc5c4)c3n2)cn1` [Compound 72], under setting [1], the IC50 lay within 0.001 to 0.1 µM.
Take `OCCn1cc(-c2ccc3nnn(Cc4ccc5ncsc5c4)c3n2)cn1` [Compound 73]: the IC50 under setting [1] fell in the range of 0.1 to 1 µM.
Same read-out and setting: as for `OCCn1cc(-c2ccc3nnn(Cc4cc5cnccc5s4)c3n2)cn1` [Compound 74], the figure is 0.1 to 1 µM; as for `CNc1ccc(-c2ccc3nnn(Cc4ccc5ncccc5c4)c3n2)cn1` [Compound 76], 0.001 to 0.1 µM; as for `C[C@@H](c1ccc2ncccc2c1)n1nnc2ccc(-c3cnn(CCO)c3)nc21` [Compound 77], 0.001 to 0.1 µM.
On the same count and under the same terms, as for `C[C@H](c1ccc2ncccc2c1)n1nnc2ccc(-c3cnn(CCO)c3)nc21` [Compound 78], the figure is 0.1 to 1 µM.
Still for that read-out and setting: as for `Cc1ccc(-c2ccc3nnn(Cc4ccc5ncccc5c4)c3n2)cn1` [Compound 79], the figure is 0.1 to 1 µM; as for `c1cnc2ccc(Cn3nnc4ccc(-n5cccn5)nc43)cc2c1` [Compound 80], 0.1 to 1 µM.
Take `c1cnc2ccc(Cn3nnc4ccc(-c5cc[nH]n5)nc43)cc2c1` [Compound 81]: the IC50 under setting [1] was in the range of 0.001 to 0.1 µM.
Same read-out and setting: as for `COCCNc1ccc(-c2ccc3nnn(Cc4ccc5ncccc5c4)c3n2)cn1` [Compound 82], the figure is 0.001 to 0.1 µM; as for `CNC(=O)c1ccc(-c2ccc3nnn(Cc4ccc5ncccc5c4)c3n2)cn1` [Compound 83], 0.001 to 0.1 µM.
`CS(=O)(=O)Nc1ccc(-c2ccc3nnn(Cc4ccc5ncccc5c4)c3n2)cc1` [Compound 84]: the IC50 under setting [1] was in the range of 0.001 to 0.1 µM.
As to `CS(=O)(=O)Nc1cccc(-c2ccc3nnn(Cc4ccc5ncccc5c4)c3n2)c1` [Compound 85], the IC50 under setting [1] lay in the range of 0.001 to 0.1 µM.
Take `OCCn1cc(-c2ccc3nnn(Cc4c[nH]c5ncccc45)c3n2)cn1` [Compound 86]: the IC50 under setting [1] was 0.001 to 0.1 µM.
With `c1csc(-c2ccc3nnn(Cc4ccc5ncccc5c4)c3n2)c1` [Compound 87], the IC50 under setting [1] fell in the range of 0.001 to 0.1 µM.
On to `COc1cccc(-c2ccc3nnn(Cc4ccc5ncccc5c4)c3n2)c1` [Compound 88], for which the IC50 under setting [1] lay in the range of 0.001 to 0.1 µM.
Regarding `CS(=O)(=O)Nc1ccc(-c2ccc3nnn(Cc4ccc5ncccc5c4)c3n2)cn1` [Compound 90], the IC50 under setting [1] fell in the range of 0.001 to 0.1 µM.
Same read-out and setting: as for `CC(=O)Nc1ccc(-c2ccc3nnn(Cc4ccc5ncccc5c4)c3n2)cn1` [Compound 91], the figure is 0.001 to 0.1 µM.
